Molecules are shown by their SMILES. Converted amounts (≈) assume the structure as drawn. Read-outs that look alike come from different tables or passages of the source.

Data on two molecules can be found in publication PMC11990383, “Structure Determination of Tegoprazan((S)-4-((5,7-difluorochroman-4-yl)oxy)-N,N,2-trimethyl-1H-benzo[d]imidazole-6-formamide) Polymorphs A and B by Laboratory X-Ray Powder Diffraction” (Molecules, 2025).

Data set [1] can be described thus: Stability of polymorphs under accelerated conditions, followed by DSC and XRD. To be noted: 40 ± 2 °C, relative humidity 75 ± 5 %, 8-week period; changes seen in the eighth week. The data set is classed as physicochemical. Here is the method:
As a case in point, the stability of the two Tegoprazan polymorphs was evaluated under accelerated conditions (temperature: 40 ± 2 °C, relative humidity: 75 ± 5 HR%) over an 8-week period, with observations for any significant changes conducted using DSC (Differential Scanning Calorimetry) and XRD (X-ray diffraction). […] Therefore, it is essential to elucidate the details of this phenomenon. For quantitative phase analysis and similar studies, knowledge of the crystal structure is crucial. However, the crystal structures of Polymorphs A and B remain unresolved. In response to this need, we explored a practical approach to crystal structure analysis by utilizing readily available powder samples, laboratory-scale XRD instruments, and cost-efficient Rietveld refinement software specifically EXPO2014 (expo version 1.22.11). The known method of SDPD (Structure Determination from Powder Diffraction) was considered as one potential solution to address these challenges. While X-ray diffraction often utilizes synchrotron radiation or other advanced accelerator-based facilities, the crystal structures of Tegoprazan Polymorphs A and B were analyzed using laboratory-based X-ray diffraction (XRD) equipment and powdered samples. This approach was chosen for the following reasons: […]

A short description of data set [2]: Equilibrium solubility in water, potentiometric (pH-metric) CheqSol method. The data set is classed as physicochemical. To be noted: for solubility: thermodynamic from solid, read-out: equilibrium concentration (solubility, S). How it is done:
Solubility (S) measurements were conducted in water using the CheqSol system at five temperatures: 15 °C, 25 °C, 35 °C, 45 °C, and 55 °C. However, due to the hydrolytic instability of Tegoprazan at elevated temperatures and the pH-dependent nature of the CheqSol assay, reliable measurements could only be obtained at 15 °C and 25 °C. Based on the equilibrium solubility values at these two temperatures, the enthalpy of solution (ΔHsol) was estimated for each polymorph using van’t Hoff plots of ln(S) versus 1/T.
Solubility measurements were performed using the potentiometric (pH-metric) method with the CheqSol system (T3, Sirius Analytical Instruments Ltd., Portsmouth, UK). Unlike pKa determinations, solubility assays require relatively high sample concentrations to ensure saturation across a broad pH range (typically, pH 2 to 12). In this method, the solution is intentionally brought into a supersaturated state to establish “crossing points,” from which the intrinsic (equilibrium) solubility is calculated based on the concentration of the neutral species predominating at specific pH levels. The high initial concentration of the sample promotes supersaturation, leading to precipitation at pH values corresponding to the compound’s pKa. This onset of precipitation reflects the kinetic solubility, which can be characterized by various physicochemical parameters, including the pKa value, saturated pH, sample concentration, temperature, and crystallinity. This study aimed to investigate the temperature dependence of solubility for Polymorphs A and B. Measurements were conducted at five temperatures: 15 °C, 25 °C, 35 °C, 45 °C, and 55 °C.

Turning to `Cc1nc2c(OC3CCOc4cc(F)cc(F)c43)cc(C(=O)N(C)C)cc2[nH]1` [Polymorph A, (S)-4-((5,7-difluorochroman-4-yl)oxy)-N,N,2-trimethyl-1H-benzo[d]imidazole-6-formamide], the “solid-state stability (changes by DSC and XRD)” value in data set [1] is “No changes”. The solubility in data set [2] (15 °C, 15 °C) is 1250 µM (≈ 483 µg/mL); in data set [2] (25 °C, 25 °C), 1440 µM (≈ 557 µg/mL).
For `Cc1nc2c(OC3CCOc4cc(F)cc(F)c43)cc(C(=O)N(C)C)cc2[nH]1` [Polymorph B, (S)-4-((5,7-difluorochroman-4-yl)oxy)-N,N,2-trimethyl-1H-benzo[d]imidazole-6-formamide], the “solid-state stability (changes by DSC and XRD)” value in data set [1] is “phase transition to Polymorph A”. Besides, the entries for the “equilibrium concentration (solubility, S)” value in data set [2] (15 °C) and in data set [2] (25 °C) were 1476 µM and 2118 µM, respectively.
